Test results taken from article PMC9516332 (Frontiers in Oncology, 2022).
Where two headings read alike, the source gives them in different places.

Assays:
134 cancer cell lines = test: Cell viability assay (ATPlite, 72 hours), IC50 on cancer cell line panel
AP-1060 (ETV6-NTRK3) = test: Cell viability assay; conditions: read-out: IC50 in cell proliferation assay

## Cc1nc(NC(=O)N2CCC[C@H]2C(N)=O)sc1-c1ccnc(C(C)(C)C(F)(F)F)c1 [alpelisib]
134 cancer cell lines; Homo sapiens, MV4-11, read-out: IC50 in cell proliferation assay, MV4-11 cell line (FLT3 ITD)
  IC50: 10.5 µM
134 cancer cell lines; Homo sapiens, MeWo, read-out: IC50 in cell proliferation assay, MeWo cell line
  IC50: > 31.6 µM
134 cancer cell lines; Homo sapiens, NCCIT, read-out: IC50 in cell proliferation assay, NCC-IT cell line
  IC50: 8.35 µM
134 cancer cell lines; Homo sapiens, NCI-H82, read-out: IC50 in cell proliferation assay, cell line NCI-H82
  IC50: 11.1 µM
134 cancer cell lines; Homo sapiens, NCI-H460, read-out: IC50 in cell proliferation assay, NCI-H460 cell line
  IC50: 7.11 µM
134 cancer cell lines; Homo sapiens, NCI-H661, read-out: IC50 in cell proliferation assay, NCI-H661 cell line
  IC50: 9.63 µM
134 cancer cell lines; Homo sapiens, NCI-H716, read-out: IC50 in cell proliferation assay, cell line NCI-H716 (FGFR2-COL14A1)
  IC50: 0.049 µM
134 cancer cell lines; Homo sapiens, NCI-H1650, read-out: IC50 in cell proliferation assay, NCI-H1650 cell line (EGFR exon19del)
  IC50: 18.1 µM
134 cancer cell lines; Homo sapiens, NCI-H1975, read-out: IC50 in cell proliferation assay, NCI-H1975 cell line (EGFR p.L858R + p.T790M)
  IC50: 1.49 µM
134 cancer cell lines; Homo sapiens, NCI-H2228, read-out: IC50 in cell proliferation assay, NCI-H2228 cell line (EML4-ALK)
  IC50: 4.04 µM
134 cancer cell lines; Homo sapiens, OVCAR-3, read-out: IC50 in cell proliferation assay, cell line OVCAR-3
  IC50: 6.11 µM
134 cancer cell lines; Homo sapiens, PFSK-1, read-out: IC50 in cell proliferation assay, cell line PFSK-1
  IC50: 0.52 µM
134 cancer cell lines; Homo sapiens, RL95-2, read-out: IC50 in cell proliferation assay, cell line RL95-2 (EGFR p.A289V)
  IC50: 18.3 µM
134 cancer cell lines; Homo sapiens, RPMI-7951, read-out: IC50 in cell proliferation assay, cell line RPMI-7951 (BRAF p.V600E)
  IC50: 10.1 µM
134 cancer cell lines; Homo sapiens, RS4-11, read-out: IC50 in cell proliferation assay, cell line RS4;11
  IC50: 4.25 µM
134 cancer cell lines; Homo sapiens, Rec1, read-out: IC50 in cell proliferation assay, cell line REC-1
  IC50: 3.14 µM
134 cancer cell lines; Homo sapiens, SHP77, read-out: IC50 in cell proliferation assay, cell line SHP-77
  IC50: > 31.6 µM
134 cancer cell lines; Homo sapiens, SK-BR-3, read-out: IC50 in cell proliferation assay, cell line SK-BR-3 (ERBB2 amplification)
  IC50: 0.676 µM
134 cancer cell lines; Homo sapiens, SK-N-AS, read-out: IC50 in cell proliferation assay, cell line SK-N-AS
  IC50: 0.065 µM
134 cancer cell lines; Homo sapiens, SK-N-FI, read-out: IC50 in cell proliferation assay, cell line SK-N-FI
  IC50: 3.1 µM
134 cancer cell lines; Homo sapiens, SK-N-MC, read-out: IC50 in cell proliferation assay, cell line SK-N-MC
  IC50: 2.6 µM
134 cancer cell lines; Homo sapiens, SK-N-SH, read-out: IC50 in cell proliferation assay, cell line SK-N-SH (ALK p.F1174L)
  IC50: 0.42 µM
134 cancer cell lines; Homo sapiens, SNU-5, read-out: IC50 in cell proliferation assay, cell line SNU-5 (MET amplification)
  IC50: 13.9 µM
134 cancer cell lines; Homo sapiens, SNU-16, read-out: IC50 in cell proliferation assay, cell line SNU-16 (FGFR2 amplification)
  IC50: > 31.6 µM
134 cancer cell lines; Homo sapiens, SNU-C2B, read-out: IC50 in cell proliferation assay, cell line SNU-C2B (EGFR p.R165Q)
  IC50: 7.04 µM
134 cancer cell lines; Homo sapiens, SU-DHL-1, read-out: IC50 in cell proliferation assay, cell line SU-DHL-1 (NPM1-ALK)
  IC50: 21.2 µM
134 cancer cell lines; Homo sapiens, SU-DHL-6, read-out: IC50 in cell proliferation assay, cell line SU-DHL-6
  IC50: 1.55 µM
134 cancer cell lines; Homo sapiens, SUP-T1, read-out: IC50 in cell proliferation assay, cell line SUP-T1
  IC50: 6.02 µM
134 cancer cell lines; Homo sapiens, SW48, read-out: IC50 in cell proliferation assay, cell line SW48 (EGFR p.G719S)
  IC50: 1.15 µM
134 cancer cell lines; Homo sapiens, SW480, read-out: IC50 in cell proliferation assay, cell line SW480
  IC50: 8.85 µM
134 cancer cell lines; Homo sapiens, SW626, read-out: IC50 in cell proliferation assay, cell line SW626
  IC50: 8.63 µM
134 cancer cell lines; Homo sapiens, SW780, read-out: IC50 in cell proliferation assay, cell line SW780 (FGFR3-BAIAP2L1)
  IC50: 9.85 µM
134 cancer cell lines; Homo sapiens, SW837, read-out: IC50 in cell proliferation assay, cell line SW837
  IC50: 21.9 µM
134 cancer cell lines; Homo sapiens, SW872, read-out: IC50 in cell proliferation assay, cell line SW872 (BRAF p.V600E)
  IC50: 18.8 µM
134 cancer cell lines; Homo sapiens, SW900, read-out: IC50 in cell proliferation assay, cell line SW900
  IC50: 4.43 µM
134 cancer cell lines; Homo sapiens, SW948, read-out: IC50 in cell proliferation assay, cell line SW948
  IC50: 3.3 µM
134 cancer cell lines; Homo sapiens, SW982, read-out: IC50 in cell proliferation assay, cell line SW982 (BRAF p.V600E)
  IC50: 22.6 µM
134 cancer cell lines; Homo sapiens, SW-620, read-out: IC50 in cell proliferation assay, cell line SW620
  IC50: 6.94 µM
134 cancer cell lines; Homo sapiens, T98G, read-out: IC50 in cell proliferation assay, cell line T98G
  IC50: 7.14 µM
134 cancer cell lines; Homo sapiens, TCC-SUP, read-out: IC50 in cell proliferation assay, cell line TCCSUP
  IC50: 1.1 µM
134 cancer cell lines; Homo sapiens, THP-1, read-out: IC50 in cell proliferation assay, cell line THP-1
  IC50: 0.117 µM
134 cancer cell lines; Homo sapiens, U2OS, read-out: IC50 in cell proliferation assay, cell line U2OS
  IC50: 19.3 µM
134 cancer cell lines; Homo sapiens, U-87 MG, read-out: IC50 in cell proliferation assay, cell line U-87MG ATCC
  IC50: 17.5 µM
134 cancer cell lines; Homo sapiens, U-118-MG, read-out: IC50 in cell proliferation assay, cell line U-118MG
  IC50: 16.6 µM
134 cancer cell lines; Homo sapiens, UMUC3, read-out: IC50 in cell proliferation assay, cell line UM-UC-3
  IC50: 17.1 µM
134 cancer cell lines; Hs766T, read-out: IC50 in cell proliferation assay, Hs 766T cell line
  IC50: 7.45 µM
134 cancer cell lines; L-82, read-out: IC50 in cell proliferation assay, L-82 cell line (NPM1-ALK)
  IC50: 20.5 µM
134 cancer cell lines; Rh30, read-out: IC50 in cell proliferation assay, cell line Rh30
  IC50: 3.91 µM
134 cancer cell lines; read-out: IC50 in cell proliferation assay, 11-18 cell line (EGFR p.L858R)
  IC50: 15.5 µM
134 cancer cell lines; read-out: IC50 in cell proliferation assay, Hs 852.T cell line
  IC50: 5.79 µM
134 cancer cell lines; read-out: IC50 in cell proliferation assay, JAR cell line
  IC50: 23.2 µM
134 cancer cell lines; read-out: IC50 in cell proliferation assay, cell line 5637
  IC50: 12.8 µM
134 cancer cell lines; read-out: IC50 in cell proliferation assay, cell line A-388
  IC50: 2.91 µM
134 cancer cell lines; read-out: IC50 in cell proliferation assay, cell line DB
  IC50: 23 µM
134 cancer cell lines; read-out: IC50 in cell proliferation assay, cell line DEL (NPM1-ALK)
  IC50: 27.8 µM
134 cancer cell lines; read-out: IC50 in cell proliferation assay, cell line ES-2 (BRAF p.V600E)
  IC50: > 31.6 µM
134 cancer cell lines; read-out: IC50 in cell proliferation assay, cell line PA-1
  IC50: 17.6 µM
134 cancer cell lines; read-out: IC50 in cell proliferation assay, cell line PC-3
  IC50: 22.7 µM
134 cancer cell lines; read-out: IC50 in cell proliferation assay, cell line RD
  IC50: 1.15 µM
134 cancer cell lines; read-out: IC50 in cell proliferation assay, cell line RKO (BRAF p.V600E)
  IC50: 11 µM
134 cancer cell lines; read-out: IC50 in cell proliferation assay, cell line RL
  IC50: 18.9 µM
134 cancer cell lines; read-out: IC50 in cell proliferation assay, cell line RT-4 (FGFR3-TACC3)
  IC50: 0.12 µM
134 cancer cell lines; read-out: IC50 in cell proliferation assay, cell line SR (NPM1-ALK)
  IC50: 10.9 µM
134 cancer cell lines; read-out: IC50 in cell proliferation assay, cell line T24
  IC50: 1.08 µM
134 cancer cell lines; read-out: IC50 in cell proliferation assay, cell line TT (RET p.C634W)
  IC50: > 31.6 µM
134 cancer cell lines; read-out: IC50 in cell proliferation assay, cell line VA-ES-BJ
  IC50: 5.92 µM
AP-1060 (ETV6-NTRK3)
  IC50: 1.74 µM
